Data published in patent US9718771B2, “Aniline derivative, pharmaceutical composition containing same, and use thereof” (Kissei Pharmaceutical Co., Ltd., priority 2014, dated 2017).

Key:
blood lymphocytes = experiment: Confirmation test for reduction effects on the number of lymphocytes; type: in vivo, Male Sprague-Dawley rats; settings: rat, oral; for Number of lymphocytes (% of Vehicle) After 6 hours: 6 hours after administration; for Number of lymphocytes (% of Vehicle) After 24 hours: 24 hours after administration; for Number of lymphocytes (% of Vehicle) After 48 hours: 48 hours after administration
Procedure: Confirmation Test for Reduction Effects on the Number of Lymphocytes
Reduction effects on the number of blood lymphocytes by test compounds were confirmed using Male Sprague-Dawley rats (Japan SLC, 7-weeks-old in use). Administration solutions for test compounds were prepared on hot-plate at 50° C. After test compounds were dissolved by DMSO (dimethyl sulfoxide, Wako Pure Chemicals) of 1/10 volume of the total volume, WellSolve (Celeste) of 1/10 volume of the total volume was added to this solution. Further, distilled water (Otsuka Pharmaceutical Factory) of 8/10 volume of the total volume was added to this solution, and the administration solutions for test compounds were prepared. A solution, prepared in the same volume ratios of DMSO. WellSolve and distilled water as the administration solution for test compounds, was used as a solvent (Vehicle). Vehicle or test compound was administered orally to rats at 1 mL/body. After 6, 24 and 48 hours from administration of vehicle or test compounds, rats were held on the board at supine position under inhalation anesthesia with isoflurane (Abbott Japan). Blood samples (200 to 250 μL) were collected from the cervical vein of this rat using 1 mL syringes with needles of 25G. The collected blood samples were transferred to a microtube treated with EDTA-2K (Japan Becton Dickinson), and stored at room temperature after gently mixing with inversion. The number of lymphocytes was measured by ADVIA (registered mark) (Bayer), which is a multi-parameter automated blood cell counter using this blood samples. The average number of lymphocytes in vehicle-treated group (vehicle group) was defined as 100%, and the average number of lymphocytes in each test compound-treated group was calculated as % of vehicle. As Comparative Example 2, 1-{5-[1-(4-chloro-3-methyl-phenyl)-propylamino]-2-methyl-benzyl}-azetidine-3-carboxylic acid (patent literature 1, Example 4) was evaluated as well.

human S1P1 (EDG-1) = human S1P1 (EDG-1) (Homo sapiens (Human), UniProt P21453); experiment: Confirmation test of antagonistic activity for human S1P1 receptor (35S-GTP binding, cell membranes); type: biochemical; settings: inhibition of 35S-GTP binding induced by S1P1 receptor selective agonist; HEK293 membranes expressing human S1P1
human S1P1 (EDG-1), sequence (P21453 whole entry): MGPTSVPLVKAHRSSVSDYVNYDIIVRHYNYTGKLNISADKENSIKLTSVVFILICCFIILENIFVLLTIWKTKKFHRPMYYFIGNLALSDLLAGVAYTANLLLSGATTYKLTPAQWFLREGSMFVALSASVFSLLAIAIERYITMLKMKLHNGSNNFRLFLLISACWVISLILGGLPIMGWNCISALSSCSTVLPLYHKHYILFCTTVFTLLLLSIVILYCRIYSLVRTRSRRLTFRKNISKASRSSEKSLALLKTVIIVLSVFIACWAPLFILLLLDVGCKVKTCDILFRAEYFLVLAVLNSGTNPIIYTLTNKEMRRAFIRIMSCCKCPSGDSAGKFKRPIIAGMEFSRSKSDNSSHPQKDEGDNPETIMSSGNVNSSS
Procedure: Confirmation Test of Antagonistic Activity for Human S1P1 Receptor
Test compounds were tested by reduction of functional binding activity of ^35S-GTP (guanosine 5′-O-[gamma-thio] triphosphate, PerkinElmer) to G protein using cell membranes expressing human S1P1 (EDG-1). S1P1-pcDNA3.1/V5-His-Topo vector was prepared by inserting cDNA (NM_001400) encoding human S1P1 into the expression vector, pcDNA3.1/V5-His-Topo (registered trademark) (Invitrogen). Next, the above S1P1-pcDNA3.1 vector was transfected into HEK293 cells by Lipofectamine2000 (registered trademark) (Invitrogen). The transfected cells were incubated with D-MEM liquid medium each containing 10% FBS (Fetal bovine serum), 100 U/mL penicillin, 100 μg/mL streptomycin and 1 mg/mL Geneticin (registered trademark) (Invitrogen) in an incubator under the condition of 5% CO2 at 37° C. and Geneticin (registered mark)-resistant cell line stably expressing S1P1 were obtained. The obtained stably S1P1-expressing cells were incubated with D-MEM liquid medium each containing 10% FBS and 0.5 mg/mL Geneticin (registered trademark) in an incubator under the condition of 5% CO2 at 37° C. The cells grown to confluence were harvested by a buffer solution containing 50 mM Tris, 2 mM EDTA (ethylmediaminetetraacetic acid) and 125 mM sodium chloride, and centrifuged at 1880×g, 4° C. for 10 minutes. After a supernatant was removed, a cell pellet was resuspended by the same buffer solution. For making cell membranes fragile, this cell suspension was frozen at −80° C. and then thawed. The cells were centrifuged at 1880×g, 4° C. for 10 minutes, and a supernatant was removed. The cell pellet was suspended by adding the same buffer solution and a fracture solution (10 mM sodium bicarbonate and 5 mM EDTA, pH 7.5) at a ratio of 2:1. The cells were fractured by subjecting the cell suspension to ultrasonication, and a cell membrane fraction was isolated by centrifugation at 1880×g, 4° C. for 10 minutes and ultracentrifugation of the supernatant at 80000×g, 4° C. for 30 minutes. A pellet of the cell membrane fraction was suspended by the fracture solution containing protease inhibitor cocktail (Roche) and stored at −80° C. until use. A protein concentration of the cell membrane fraction was determined using BCA Protein Assay Kit (Pierce) in accordance with an attached protocol.
Inhibitory activity evaluation was performed by multi-screen (registered trademark) HTS 96-well plate (Millipore) using the cell membrane fraction stably expressing S1P1 obtained by the above operation. 25 μL of assay solution (50 mM Tris, 100 mM sodium chloride, 5 mM magnesium chloride, 1 mM EDTA, 1 mM DTT (dithiothreitol), 10 μM GDP (guanosine diphosphate) and 0.5% BSA (bovine serum albumin), pH 7.4), 25 μL of test compounds solution diluted by assay solution and 25 μL of the membrane fraction (0.2 μg protein/μL) were added to each well, and the mixture was gently shaken at room temperature: for 30 minutes. Then, 25 μL of ^35S-GTP, and 25 μL of 50 nM S1P1 receptor selective agonist (1-[4-(4-phenyl-5-trifluoromethylthiophen-2-ylmethoxy)benzyl]azetidine-3-carboxylic acid, “J. Med. Chem.”, 2004, vol. 47, pp. 6662-6665, compound 18) were added to each well, respectively, and it was reacted at room temperature for 60 minutes. After the reaction, a reaction solution of each well was suction-filtered. After suction filtration, ice-colded wash solution (50 mM Tris, 100 mM sodium chloride, […] and 1 mM EDTA, pH 7.4) was added to each well, and moreover filters were washed by suction filtration. This wash procedure was performed three times. A bottom of the plate containing the filters was dried at 60° C. After drying, 30 μL of MicroScinti-40 (PerkinElmer) was added to each well, and the radioactivity adsorbed on the filter was determined by TopCount NXT (registered trademark) (PerkinElmer) after shaking for 30 minutes at room temperature. […]

Row | Compound | Number of lymphocytes (% of Vehicle) After 6 hours (blood lymphocytes; 10 mg/kg) | Number of lymphocytes (% of Vehicle) After 24 hours (blood lymphocytes; 10 mg/kg) | Number of lymphocytes (% of Vehicle) After 48 hours (blood lymphocytes; 10 mg/kg) | IC50 (human S1P1 (EDG-1)) [nM] | Number of lymphocytes (% of Vehicle) After 6 hours (blood lymphocytes; 1 mg/kg) | Number of lymphocytes (% of Vehicle) After 24 hours (blood lymphocytes; 1 mg/kg) | Number of lymphocytes (% of Vehicle) After 48 hours (blood lymphocytes; 1 mg/kg)
1 | CCN(c1ccc(Cl)c(C)c1)C(C)c1ccc(C)c(CN2CC(C(=O)O)C2)c1 (centres unmarked) [Compound 2-6, 1-(5-{1-[(4-Chloro-3-methylphenyl)(ethyl)amino]ethyl}-2-methylbenzyl)azetidine-3-carboxylic acid] | 9.9 % of Vehicle | 14.1 % of Vehicle | 65.7 % of Vehicle | 1 | – | – | –
2 | CCN(c1ccc(Cl)c(C(F)(F)F)c1)C(C)c1ccc(C)c(CN2CC(C(=O)O)C2)c1 (centres unmarked) [Compound 2-7, 1-(5-{1-[(4-Chloro-3-trifluoromethylphenyl)(ethyl)amino]ethyl}-2-methylbenzyl)-azetidine-3-carboxylic acid] | 10.9 % of Vehicle | 10.6 % of Vehicle | 13.2 % of Vehicle | 1.2 | 15.0 % of Vehicle | 11.1 % of Vehicle | 66.8 % of Vehicle
